Experimental data as given in patent US10195156B2, “Compounds and compositions for intracellular delivery of agents” (ModernaTX, Inc., priority 2015, dated 2019).

How the values were obtained:
[1] = Particle size and polydispersity index of nanoparticle compositions (Zetasizer Nano ZS); format: physicochemical; conditions: for particle size, rank within the named table (in words): comparison amongst compositions
Summary of the method: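 Measured in 1×PBS by Zetasizer Nano ZS.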

[2] = Encapsulation efficiency of RNA (QUANT-IT RIBOGREEN RNA assay); format: physicochemical
Summary of the method: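 RiboGreen fluorescence (ex ~480, em ~520 nm) measured after 15 min at 37 °C on samples at ~5 μg/mL in TE, pH 7.5, ± 2% Triton X-100 solution. After blank subtraction, free RNA is given as intact-sample signal divided by disrupted-sample signal.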

[3] = system: luciferase (Luc) mRNA expression; assay: Expression of Luc induced by sample formulations, whole-body bioluminescence after intravenous administration; format: in vivo; conditions: mice, i.v., 0.5 mg/kg
Summary of the method: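 Read-out is whole-body bioluminescence at 3, 6 and 24 h after a single intravenous dose of 0.5 mg/kg Luc mRNA in nanoparticle formulations. Groups of n=6 mice; PBS and standard MC3 formulation as references.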

[4] = pKa of nanoparticle compositions; format: physicochemical
IP-10 = assay: Cytokine production induced by sample formulations: IP-10; format: in vivo; conditions: mice, i.v., 0.5 mpk, 6 hours; for IP-10: in pg/mL (unit assumed)
Summary of the method: (§1)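 Cytokine levels were quantified at 6 hours in mice given the nanoparticle compositions i.v. at 0.5 mpk. MC3 standard formulation and PBS served as comparators.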

[5] = system: modified luciferase expression; assay: Expression of Luc in different organs (liver, lung, spleen, femur) 6 hours after intravenous administration; format: in vivo; conditions: i.v., 0.5 mpk
Protocol: The efficacy of the nanoparticle compositions presented in Tables 1, 1a, 17-1, 19-1, 20-1 and 21-1 was further evaluated by measuring the expression of modified luciferase in the liver, lung, spleen, and femur upon administration of a given composition. Formulations were administered intravenously to mice (n=3) at a dosage of 0.5 mpk and bioluminescence measured after 6 hours. The standard MC3 formulation and a PBS control were also tested.

IL-6 = assay: Cytokine production induced by sample formulations: IL-6; format: in vivo; conditions: mice, i.v., 0.5 mpk, 6 hours; for IL-6: in pg/mL (unit assumed)
Summary of the method: as §1

[6] = Table 20-1, rows without footnote mark

Structure (SMILES)	PDI ([1]; Table 17-1)	Size (nm) ([1]; Table 17-1)	particle size, rank within the named table (in words) [1]	EE (%) ([2]; Table 17-1)	Total Flux 3 hours ([3]; Table 17-2)	Total Flux 6 hours ([3]; Table 17-2)	Total Flux 24 hours ([3]; Table 17-2)	pKa ([4]; Table 17-1)	PDI [1, 6]	Size (nm) [1, 6] [nm]	EE (%) [2, 6] [%]	Total Flux 3 hours ([3]; Table 20-2)	Total Flux 6 hours ([3]; Table 20-2)	Total Flux 24 hours ([3]; Table 20-2)	pKa [4, 6]	IP-10 (IP-10; Table 20-4, formula (20-I))	Total Flux Liver ([5]; Table 20-3, mice)	Total Flux Lung ([5]; Table 20-3, mice)	Total Flux Spleen ([5]; Table 20-3, mice)	IL-6 (IL-6; Table 20-4, formula (20-I))	other results
CCCCC/C=C\C/C=C\CCCCCCCCN(CCO)CCCCCC [Compound 17-2, 2-(Hexyl((9Z,12Z)-octadeca-9,12-dien-1-yl)amino)ethan-1-ol]	0.104	136.9	largest particles	57.2	2.83E+05	3.76E+05	2.64E+05	6.92													encapsulation efficiency, rank within the named table (in words) ([2]; comparison amongst compositions): did not encapsulate RNA with high efficiency; IP-10 (IP-10; Table 17-4): 72.8; IP-10 induction, rank or comparison with IL-6 (in words) (IP-10): lowest IP-10 levels; Total Flux Liver ([5]; Table 17-3, mice): 6.42E+04; Total Flux Lung ([5]; Table 17-3, mice): 1.96E+04; Total Flux Spleen ([5]; Table 17-3, mice): 4.16E+04; IL-6 (IL-6; Table 17-4): 9.88; IL-6 induction, rank within the named table (in words) (IL-6): lowest IL-6 levels
CCCCCCCCCCCCN(CCCO)CCN(CCCCCCCCCCCC)CCCCCCCCCCCC [Compound 20-21, 3-((2-(Didodecylamino)ethyl)(dodecyl)amino)propan-1-ol]									0.238	78.6	84.7	1.43E+09	1.02E+09	1.13E+08	5.78	900.4	1.27E+08	1.98E+05	2.20E+06	68.4	
CCCCCCCCCCCCN(CCCCO)CCN(CCCCCCCCCCCC)CCCCCCCCCCCC [Compound 20-22, 4-((2-(Didodecylamino)ethyl)(dodecyl)amino)butan-1-ol]									0.146	73.8	95.3	4.00E+09	3.01E+09	2.20E+08	5.90	810.6	2.88E+08	5.04E+05	1.65E+06	118.6	
CCCCCCCCCCCCN(CCCCO)CCCCCCCCCCCC [Compound 17-13, 4-(Didodecylamino)butan-1-ol]	0.176	90.4		89.22	1.10E+06	1.80E+06	7.95E+05	6.89													IP-10 (IP-10; Table 17-4): 222; Total Flux Liver ([5]; Table 17-3, mice): 3.56E+05; Total Flux Lung ([5]; Table 17-3, mice): 4.66E+04; Total Flux Spleen ([5]; Table 17-3, mice): 1.90E+05; IL-6 (IL-6; Table 17-4): 84.3
CCCCCCCCCCCCCCN(CCO)CCN(CCCCCCCCCCCCCC)CCCCCCCCCCCCCC [Compound 20-12, 2-((2-(Ditetradecylamino)ethyl)(tetradecyl)amino)ethan-1-ol]			largest particles						0.217	147.1	82.3	1.57E+09	1.84E+09	1.24E+08	6.58	3864.5	3.08E+08	3.58E+06	6.15E+07	445.7	Total Flux Femur ([5]; Table 20-3, mice, femur): 1.37E+06
CCCCCCCCCCCCCCN(CCCCCCCCCCCCCC)CCN(CCCO)CCCCCCCCCCCC [Compound 20-11, 3-((2-(Ditetradecylamino)ethyl)(dodecyl)amino)propan-1-ol]									0.118	96.1	97.5	1.44E+09	8.83E+08	2.40E+07	5.38	1700.5	3.60E+08	5.86E+05	9.24E+06	46.9	
